{"source": "the NIST ThermoML archive (doi:10.1016/j.tca.2017.07.003)", "note": "Numbers after ± are expanded uncertainties.", "data": [{"conditions": "Crystal; DTA", "units": {"Normal melting temperature": "°C"}, "values": [{"smiles": "CC(C)CNC(=O)c1cc(C(=O)NCC(C)C)cc(C(=O)NCC(C)C)c1", "note": "[N,N',N''-tris(2-methylpropyl)-1,3,5-benzenetricarboxamide]", "Normal melting temperature": "300.00 ± 1"}, {"smiles": "CC(C)(C)NC(=O)c1cc(C(=O)NC(C)(C)C)cc(C(=O)NC(C)(C)C)c1", "note": "[N,N',N''-tris(tert-butyl)-1,3,5-benzenetricarboxamide]", "Normal melting temperature": "304.00 ± 1"}, {"smiles": "CCCCNC(=O)c1cc(C(=O)NCCCC)cc(C(=O)NCCCC)c1", "note": "[N,N',N''-tributyl-1,3,5-benzenetricarboxamide]", "Normal melting temperature": "229.00 ± 1"}]}]}
